From ChEMBL document CHEMBL5143597, “Design and synthesis of novel spirocyclic carboxylic acids as potent and orally bioavailable DGAT1 inhibitors and their biological evaluation” (Bioorg Med Chem Lett, 2022)

How the values were obtained:
[1] = target: CYP3A4 (Homo sapiens, UniProt P08684); test: Inhibition of recombinant human CYP3A4 at 25 uM by fluorescence plate reader analysis; assay type: ADME
[2] = target: CYP2C9 (Homo sapiens, UniProt P11712); test: Inhibition of recombinant human CYP2C9 at 25 uM by fluorescence plate reader analysis; assay type: ADME
Chain of CYP2C9 (P11712 whole entry): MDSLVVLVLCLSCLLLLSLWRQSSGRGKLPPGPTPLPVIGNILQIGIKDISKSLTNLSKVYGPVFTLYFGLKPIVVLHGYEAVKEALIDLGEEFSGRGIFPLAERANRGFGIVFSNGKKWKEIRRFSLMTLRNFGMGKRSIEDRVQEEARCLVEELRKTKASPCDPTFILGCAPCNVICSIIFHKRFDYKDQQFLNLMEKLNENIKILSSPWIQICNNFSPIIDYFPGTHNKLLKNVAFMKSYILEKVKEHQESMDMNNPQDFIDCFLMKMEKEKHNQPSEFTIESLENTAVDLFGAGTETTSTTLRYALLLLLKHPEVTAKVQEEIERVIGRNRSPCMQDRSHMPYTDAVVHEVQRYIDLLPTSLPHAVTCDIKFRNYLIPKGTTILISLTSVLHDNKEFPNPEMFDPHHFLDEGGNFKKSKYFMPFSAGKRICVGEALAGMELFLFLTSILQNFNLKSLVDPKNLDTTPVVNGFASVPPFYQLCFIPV

[3] = target: T1, CYP1A2 (Homo sapiens, UniProt P05177); test: Inhibition of recombinant human CYP1A2 at 25 uM by fluorescence plate reader analysis; assay type: ADME
T1 sequence (P05177 whole entry): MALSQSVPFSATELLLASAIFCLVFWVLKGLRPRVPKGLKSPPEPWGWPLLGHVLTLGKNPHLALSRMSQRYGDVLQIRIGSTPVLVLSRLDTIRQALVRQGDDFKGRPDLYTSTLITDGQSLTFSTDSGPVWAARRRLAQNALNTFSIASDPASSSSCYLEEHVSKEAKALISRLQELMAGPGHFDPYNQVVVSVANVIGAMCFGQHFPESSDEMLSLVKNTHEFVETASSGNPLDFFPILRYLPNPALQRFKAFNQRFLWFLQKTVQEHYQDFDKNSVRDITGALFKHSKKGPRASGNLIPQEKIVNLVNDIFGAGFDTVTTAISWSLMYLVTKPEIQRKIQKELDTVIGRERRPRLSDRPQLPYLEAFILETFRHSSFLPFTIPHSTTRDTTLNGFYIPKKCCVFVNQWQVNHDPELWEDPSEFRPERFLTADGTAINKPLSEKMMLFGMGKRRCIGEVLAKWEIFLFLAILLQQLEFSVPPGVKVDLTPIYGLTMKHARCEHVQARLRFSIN

[4] = Solubility of compound in PBS at pH 9 incubated for 4 hrs under shaking condition by UV absorbance based analysis; assay type: physicochemical
[5] = target: CYP2D6 (Homo sapiens, UniProt P10635); test: Inhibition of recombinant human CYP2D6 at 10 uM by fluorescence plate reader analysis; assay type: ADME
Chain of CYP2D6 (P10635 whole entry): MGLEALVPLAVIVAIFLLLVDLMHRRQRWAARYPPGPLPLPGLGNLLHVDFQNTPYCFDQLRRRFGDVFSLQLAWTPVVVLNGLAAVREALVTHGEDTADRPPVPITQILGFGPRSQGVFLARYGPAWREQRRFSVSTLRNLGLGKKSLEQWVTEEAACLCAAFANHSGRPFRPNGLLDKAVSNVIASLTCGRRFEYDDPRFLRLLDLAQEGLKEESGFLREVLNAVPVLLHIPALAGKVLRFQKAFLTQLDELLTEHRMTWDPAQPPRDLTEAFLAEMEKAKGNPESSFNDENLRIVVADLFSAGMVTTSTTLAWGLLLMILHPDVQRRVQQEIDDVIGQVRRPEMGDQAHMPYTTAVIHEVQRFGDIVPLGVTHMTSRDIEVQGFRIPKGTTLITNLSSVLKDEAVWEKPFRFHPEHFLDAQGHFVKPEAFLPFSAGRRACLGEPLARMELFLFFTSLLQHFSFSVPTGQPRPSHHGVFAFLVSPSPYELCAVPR

[6] = Solubility of compound in PBS at pH 7.4 incubated for 4 hrs under shaking condition by UV absorbance based analysis; assay type: physicochemical
[7] = Solubility of compound in PBS at pH 4 incubated for 4 hrs under shaking condition by UV absorbance based analysis; assay type: physicochemical
[8] = Solubility of compound in PBS at pH 2 incubated for 4 hrs under shaking condition by UV absorbance based analysis; assay type: physicochemical
[9] = target: hERG (KCNH2) (Homo sapiens, UniProt Q12809); test: Displacement of [3H]astemizole from human ERG expressed in HEK293 cell membrane at 10 uM for 2 hrs by Radiometric displacement assay; assay type: toxicity; settings: HEK293 cell membranes that express hERG, probe [3H]astemizole
Chain of hERG (KCNH2) (Q12809 whole entry): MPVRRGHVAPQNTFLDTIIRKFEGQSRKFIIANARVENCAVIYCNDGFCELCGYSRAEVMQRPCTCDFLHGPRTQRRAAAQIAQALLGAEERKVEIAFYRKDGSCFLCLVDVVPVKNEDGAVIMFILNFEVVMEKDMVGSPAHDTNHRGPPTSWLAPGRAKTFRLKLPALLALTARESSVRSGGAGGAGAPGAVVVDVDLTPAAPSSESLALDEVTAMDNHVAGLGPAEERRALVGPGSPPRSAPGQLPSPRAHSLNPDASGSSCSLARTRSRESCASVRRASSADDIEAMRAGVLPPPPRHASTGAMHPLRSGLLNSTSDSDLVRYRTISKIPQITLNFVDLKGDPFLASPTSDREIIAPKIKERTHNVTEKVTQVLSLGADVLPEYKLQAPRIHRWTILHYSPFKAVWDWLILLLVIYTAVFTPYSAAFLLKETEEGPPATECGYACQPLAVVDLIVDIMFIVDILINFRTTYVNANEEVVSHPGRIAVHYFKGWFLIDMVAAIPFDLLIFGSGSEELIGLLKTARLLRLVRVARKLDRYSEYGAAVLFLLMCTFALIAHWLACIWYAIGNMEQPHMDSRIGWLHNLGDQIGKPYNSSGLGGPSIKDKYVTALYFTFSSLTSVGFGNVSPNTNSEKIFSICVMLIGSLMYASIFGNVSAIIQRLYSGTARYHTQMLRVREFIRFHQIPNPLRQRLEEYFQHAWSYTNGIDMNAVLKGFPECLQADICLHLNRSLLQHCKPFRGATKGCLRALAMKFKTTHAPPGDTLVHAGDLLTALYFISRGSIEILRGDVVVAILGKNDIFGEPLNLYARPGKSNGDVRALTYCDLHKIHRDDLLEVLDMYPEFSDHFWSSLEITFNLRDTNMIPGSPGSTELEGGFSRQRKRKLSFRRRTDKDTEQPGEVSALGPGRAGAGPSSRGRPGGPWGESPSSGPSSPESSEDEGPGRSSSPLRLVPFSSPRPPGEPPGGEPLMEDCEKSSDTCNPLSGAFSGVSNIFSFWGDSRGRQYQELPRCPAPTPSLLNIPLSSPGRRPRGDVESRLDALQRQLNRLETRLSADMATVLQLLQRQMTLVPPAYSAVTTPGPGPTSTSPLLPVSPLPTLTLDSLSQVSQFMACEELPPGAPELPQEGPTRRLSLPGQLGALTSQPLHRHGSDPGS

[10] = target: T2, Diacylglycerol O-acyltransferase 1 (Homo sapiens, UniProt O75907); test: Inhibition of human DGAT1 in serum starved HEK293 cells assessed as inhibition of triglyceride synthesis incubated for 20 mins followed by 13C-addition of 13C-oleic acid pre-complexed with BSA for 120 mins by LC-MS-based mass spectrophotometric analysis; assay type: cell-based
T2 sequence (O75907 whole entry): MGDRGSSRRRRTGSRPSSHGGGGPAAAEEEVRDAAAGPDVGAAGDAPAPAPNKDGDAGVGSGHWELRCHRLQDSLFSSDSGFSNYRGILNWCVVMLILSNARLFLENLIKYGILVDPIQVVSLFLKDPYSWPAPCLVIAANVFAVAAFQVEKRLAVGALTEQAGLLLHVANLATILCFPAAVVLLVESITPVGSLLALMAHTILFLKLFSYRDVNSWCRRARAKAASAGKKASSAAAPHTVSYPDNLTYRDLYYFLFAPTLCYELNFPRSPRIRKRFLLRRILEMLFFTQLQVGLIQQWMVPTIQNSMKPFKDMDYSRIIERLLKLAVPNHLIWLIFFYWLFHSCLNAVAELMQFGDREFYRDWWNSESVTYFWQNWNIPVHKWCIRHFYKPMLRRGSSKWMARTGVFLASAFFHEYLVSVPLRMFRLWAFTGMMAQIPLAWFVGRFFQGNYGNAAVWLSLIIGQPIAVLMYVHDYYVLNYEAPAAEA

[11] = Plasma protein binding in rat; assay type: ADME, cell-free; settings: read-out: PPB
[12] = Metabolic stability in human liver microsomes assessed as parent compound remaining at 1 uM and measured at 30 mins by LC-MS/MS analysis; assay type: ADME, Microsome; settings: read-out: Stability
[13] = Metabolic stability in mouse liver microsomes assessed as parent compound remaining at 1 uM and measured at 30 mins by LC-MS/MS analysis; assay type: ADME, Microsome; settings: read-out: Stability
[14] = Plasma protein binding in mouse; assay type: ADME, cell-free; settings: read-out: PPB (converted)
[15] = Metabolic stability in rat liver microsomes assessed as parent compound remaining at 1 uM and measured at 30 mins by LC-MS/MS analysis; assay type: ADME, Microsome; settings: read-out: Stability
[16] = AUC in Wistar rat at 3 mg/kg, iv or 10 mg/kg, po and measured up to 24 hrs by LC-MS/MS analysis; assay type: ADME, organism-based; parameters: dose 3 mg/kg, time < 24 hrs, route iv; settings: in vivo
[17] = Cmax in C57BL/6 mouse at 3 mg/kg, iv or 10 mg/kg, po and measured up to 24 hrs by LC-MS/MS analysis; assay type: ADME, organism-based; parameters: dose 3 mg/kg, time < 24 hrs, route iv; settings: in vivo
[18] = Drug distribution in C57BL/6 mouse skeletal muscle 10 mg/kg, po and measured at 2 hrs post dose by LC-MS/MS analysis; assay type: ADME, organism-based, Skeletal muscle tissue; settings: read-out: Ct
[19] = Drug distribution in C57BL/6 mouse liver 10 mg/kg, po and measured at 8 hrs post dose by LC-MS/MS analysis; assay type: ADME, organism-based; settings: read-out: Ct
[20] = Drug distribution in C57BL/6 mouse adipose tissue 10 mg/kg, po and measured at 8 hrs post dose by LC-MS/MS analysis; assay type: ADME, organism-based; settings: read-out: Ct
[21] = Drug distribution in C57BL/6 mouse plasma 10 mg/kg, po and measured at 1 hrs post dose by LC-MS/MS analysis; assay type: ADME, organism-based
[22] = Drug distribution in C57BL/6 mouse adipose tissue 10 mg/kg, po and measured at 1 hrs post dose by LC-MS/MS analysis; assay type: ADME, organism-based; settings: read-out: Ct
[23] = Drug distribution in C57BL/6 mouse plasma 10 mg/kg, po and measured at 2 hrs post dose by LC-MS/MS analysis; assay type: ADME, organism-based
[24] = Tmax in C57BL/6 mouse at 3 mg/kg, iv or 10 mg/kg, po and measured up to 24 hrs by LC-MS/MS analysis; assay type: ADME, organism-based; settings: in vivo
[25] = Oral bioavailability in Wistar rat at 10 mg/kg or 3 mg/kg, iv and measured up to 24 hrs by LC-MS/MS analysis; assay type: ADME, organism-based; settings: in vivo
[26] = Drug distribution in C57BL/6 mouse liver 10 mg/kg, po and measured at 2 hrs post dose by LC-MS/MS analysis; assay type: ADME, organism-based; settings: read-out: Ct
[27] = Drug distribution in C57BL/6 mouse brain 10 mg/kg, po and measured at 1 hrs post dose by LC-MS/MS analysis; assay type: ADME, organism-based; settings: read-out: Ct
[28] = Half life in Wistar rat at 3 mg/kg, iv or 10 mg/kg, po and measured up to 24 hrs by LC-MS/MS analysis; assay type: ADME, organism-based; settings: in vivo
[29] = Tmax in Wistar rat at 3 mg/kg, iv or 10 mg/kg, po and measured up to 24 hrs by LC-MS/MS analysis; assay type: ADME, organism-based; settings: in vivo
[30] = Drug distribution in C57BL/6 mouse liver 10 mg/kg, po and measured at 1 hrs post dose by LC-MS/MS analysis; assay type: ADME, organism-based; settings: read-out: Ct
[31] = Volume of distribution at steady state in Wistar rat at 3 mg/kg, iv or 10 mg/kg, po and measured up to 24 hrs by LC-MS/MS analysis; assay type: ADME, organism-based; settings: in vivo, read-out: Vdss
[32] = Oral bioavailability in C57BL/6 mouse 10 mg/kg or 3 mg/kg, iv and measured up to 24 hrs by LC-MS/MS analysis; assay type: ADME, organism-based; settings: in vivo
[33] = Clearance in Wistar rat at 3 mg/kg, iv or 10 mg/kg, po and measured up to 24 hrs by LC-MS/MS analysis; assay type: ADME, organism-based; settings: in vivo
[34] = AUC in C57BL/6 mouse at 3 mg/kg, iv or 10 mg/kg, po and measured up to 24 hrs by LC-MS/MS analysis; assay type: ADME, organism-based; parameters: time < 24 hrs, dose 3 mg/kg, route iv; settings: in vivo
[35] = Clearance in C57BL/6 mouse at 3 mg/kg, iv or 10 mg/kg, po and measured up to 24 hrs by LC-MS/MS analysis; assay type: ADME, organism-based; settings: in vivo
[36] = Half life in C57BL/6 mouse at 3 mg/kg, iv or 10 mg/kg, po and measured up to 24 hrs by LC-MS/MS analysis; assay type: ADME, organism-based; settings: in vivo
[37] = Drug distribution in C57BL/6 mouse adipose tissue 10 mg/kg, po and measured at 2 hrs post dose by LC-MS/MS analysis; assay type: ADME, organism-based; settings: read-out: Ct
[38] = Volume of distribution at steady state in C57BL/6 mouse at 3 mg/kg, iv or 10 mg/kg, po and measured up to 24 hrs by LC-MS/MS analysis; assay type: ADME, organism-based; settings: in vivo, read-out: Vdss
[39] = Drug distribution in C57BL/6 mouse skeletal muscle 10 mg/kg, po and measured at 8 hrs post dose by LC-MS/MS analysis; assay type: ADME, organism-based, Skeletal muscle tissue; settings: read-out: Ct
[40] = Drug distribution in C57BL/6 mouse skeletal muscle 10 mg/kg, po and measured at 1 hrs post dose by LC-MS/MS analysis; assay type: ADME, organism-based, Skeletal muscle tissue; settings: read-out: Ct
[41] = Apparent permeability across apical to basolateral side in MDCK cells at 2.5 uM for 90 mins; assay type: ADME, cell-based, Canis lupus familiaris; settings: dog
[42] = Drug distribution in C57BL/6 mouse brain 10 mg/kg, po and measured at 2 hrs post dose by LC-MS/MS analysis; assay type: ADME, organism-based; settings: read-out: Ct
[43] = Cmax in Wistar rat at 3 mg/kg, iv or 10 mg/kg, po and measured up to 24 hrs by LC-MS/MS analysis; assay type: ADME, organism-based; parameters: dose 3 mg/kg, time < 24 hrs, route iv; settings: in vivo
[44] = Drug distribution in C57BL/6 mouse plasma 10 mg/kg, po and measured at 8 hrs post dose by LC-MS/MS analysis; assay type: ADME, organism-based

Chain of CYP3A4 (P08684 whole entry): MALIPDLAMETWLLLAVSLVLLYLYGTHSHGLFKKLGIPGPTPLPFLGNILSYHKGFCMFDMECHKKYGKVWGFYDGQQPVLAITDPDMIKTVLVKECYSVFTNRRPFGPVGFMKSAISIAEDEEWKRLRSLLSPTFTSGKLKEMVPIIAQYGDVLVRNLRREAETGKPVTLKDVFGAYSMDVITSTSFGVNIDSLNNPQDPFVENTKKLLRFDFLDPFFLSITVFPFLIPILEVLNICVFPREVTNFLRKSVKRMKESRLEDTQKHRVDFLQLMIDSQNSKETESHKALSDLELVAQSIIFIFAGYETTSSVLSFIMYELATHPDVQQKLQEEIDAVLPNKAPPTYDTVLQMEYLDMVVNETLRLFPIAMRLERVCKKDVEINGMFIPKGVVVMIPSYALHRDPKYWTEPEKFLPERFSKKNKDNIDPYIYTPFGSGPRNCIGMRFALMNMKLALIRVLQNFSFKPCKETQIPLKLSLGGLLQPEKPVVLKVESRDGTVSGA

Structure (SMILES): O=C(Nc1ccc(C2CCC3(CC2)CC(C(=O)O)C3)cc1)c1nnc(Nc2ccc(F)c(F)c2)o1 (configuration not stated)
- inhibition at 25 µM [1]: 16%
- inhibition at 25 µM [2]: 24%
- inhibition at 25 µM [3]: 18%

Structure (SMILES): O=C([O-])CC1CCC2(CC1)CCN(c1ccc(NC(=O)c3nnc(Nc4ccc(F)c(F)c4)o3)cn1)CC2.[Na+]
- inhibition at 25 µM [1]: 12%
- solubility at 4 h [4]: < 6 µM
- inhibition at 10 µM [5]: 7%
- solubility at 4 h [6]: 37 µM
- solubility at 4 h [7]: < 6 µM
- solubility at 4 h [8]: 8 µM
- inhibition at 25 µM [3]: 8%

Structure (SMILES): O=C(O)CC1CCC2(CC1)CCC(c1ccc(NC(=O)c3nnc(Nc4ccc(F)c(F)c4)o3)cc1)CC2 (stereo in doubt; 8)
- inhibition at 2 h, 10 µM [9]: 18%
- IC50 [10]: 14.6 nM
- fraction unbound [11]: 0.01
- remaining at 0.5 h, 1 µM [12]: 100%
- remaining at 0.5 h, 1 µM [13]: 97%
- fraction unbound [14]: < 0.01
- remaining at 0.5 h, 1 µM [15]: 96%

Structure (SMILES): O=C(O)CC1CCC2(CC1)CCN(c1ccc(NC(=O)c3nnc(Nc4ccc(F)c(F)c4)o3)cn1)CC2
- AUC at 24 h [16]: 30 µM·h
- Cmax [17]: 1000 nM
- concentration at 2 h [18]: 50 nM
- concentration at 8 h [19]: 22200 nM
- concentration at 8 h [20]: 10 nM
- concentration at 1 h [21]: 1870 nM
- concentration at 1 h [22]: 160 nM
- concentration at 2 h [23]: 1460 nM
- Tmax [24]: 0.25 h
- inhibition at 2 h, 10 µM [9]: 10%
- bioavailability [25]: 38%
- concentration at 2 h [26]: 54900 nM
- fraction unbound [11]: 0.01
- concentration at 1 h [27]: 10 nM
- half-life [28]: 3.1 h
- Tmax [29]: 1.4 h
- concentration at 1 h [30]: 39200 nM
- Vd [31]: 0.6 L/kg
- bioavailability [32]: 41%
- clearance [33]: 3.3 mL/min/kg
- AUC at 24 h [34]: 1.6 µM·h
- clearance [35]: 60 mL/min/kg
- half-life [36]: 5.7 h
- concentration at 2 h [37]: 150 nM
- Vd [38]: 13 L/kg
- remaining at 0.5 h, 1 µM [12]: 100%
- remaining at 0.5 h, 1 µM [13]: 78%
- concentration at 8 h [39]: 10 nM
- fraction unbound [14]: 0.01
- remaining at 0.5 h, 1 µM [15]: 84%
- concentration at 1 h [40]: 100 nM
- Papp A→B at 1.5 h, 2.5 µM [41]: 5.3 ×10⁻⁶ cm/s
- concentration at 2 h [42]: 10 nM
- Cmax [43]: 9200 nM
- concentration at 8 h [44]: 60 nM
